According to US20030229114A1, “Pyrroloquinoline quinone drugs as a neuroprotectant and methods of use thereof” (priority 2002, published 2003):
“And” between values parts separate entries of the source, which are not always exact repeats. Equal entries are not always repeated. “Also recorded” adds a separate entry of the source.

What was measured:
Oligodendrocytes = test: In vitro white matter injury assay: SIN-1 toxicity in oligodendrocytes; format: cell-based; details: PQQ 100 μM; SIN-1 0.25-2 mM, 2 hr; examined at 24 hr
Procedure: Oligodendrocytes were exposed to various concentrations of SIN-1 (0, 0.25, 0.5, 1 and 2 mM) in EBSS for 2 hr with or without PQQ (100 μM), then washed with HBSS containing 0.1% BSA for 2 times. Oligodendrocytes were then returned to the culture medium. The neurotoxicity was examined at 24 hr.
To illustrate the neuroprotective benefits of the invention, PQQ was used to show oligodendrocytes protection from cell toxicity in an in vitro white matter injury assay. Oligodendrocytes were exposed to various concentrations of SIN-1 (0, 0.25, 0.5, 1 and 2 mM) in EBSS for 2 hr with or without PQQ (100 μM), then washed with HBSS containing 0.1% BSA for 2 times. Oligodendrocytes were then returned to the culture medium. The neurotoxicity was examined at 24 hr.

[1] = test system: cultured rat forebrain neurons; test: Assay of intracellular ATP in neuronal cultures (firefly luciferase); format: cell-based
Procedure: (§1) Medium was not subsequently changed.
Experiments were carried out exclusively in EBSS. […] PQQ was directly dissolved in EBSS.
The Bioluminescent Somatic Cell Assay kit from Sigma (catalog No. FL-ASC) was used for assay of ATP as previously described (Rosenberg et al., 2000). At selected time points after addition of drug or vehicle, medium was removed, and then replaced with 200 μl of cell lysis agent. After brief agitation, the medium was transferred to microcentrifuge tubes that contained 200 μl of water. The tubes were placed on wet ice until assay. ATP assay mix was used at 25-fold dilution, and 100 μl of the extract was assayed.

BSA = test: Western blot of BSA tyrosine nitration, cell-free (anti-nitrotyrosine antibody); format: biochemical, bovine; details: 1 hr
Procedure: BSA (0.5 mg/ml) in EBSS with or without PQQ was exposed to SIN-1 or peroxynitrite for 1 hr, and then 4× sample buffer (40% glycerol, 20% β-mercaptoethanol, 0.004% bromophenol blue, 6.4% SDS, 25% 1M Tris-HCl, pH 6.8) was added. After the samples were heated for 5 min, 2 μg protein per lane was subjected to SDS-PAGE analysis, followed by transfer to PVDF membrane (NEN Life Science, Boston, Mass.) and reacted with a mouse anti-nitrotyrosine monoclonal antibody (Upstate Biotechnology). Proteins were visualized with horseradish peroxidase-conjugated sheep anti-mouse immunoglobulin G (IgG) followed by detection with enhanced chemiluminescence.

[2] = Assay of H2O2 produced by the reaction of SIN-1 with SOD or PQQ; format: biochemical; details: data not shown
Procedure: The method described by Yakes and Van Houten (1997) was used, exploiting the oxidation of o-diansidine dihydrochloride (o-DD, Sigma D-3252) in the presence of horseradish peroxidase (Sigma P-8250). Briefly, SIN-1 (1 mM) was incubated with SOD (100 units/ml) or PQQ (100 μM) in the absence or presence of catalase (100 units/ml) in EBSS for various times. Then o-DD was added to a final concentration of 250 μM and 2.5 units/ml horseradish peroxidase were added. After 1 hr incubation at 37° C., the absorbance at 470 nm was measured. The concentration of H2O2 in samples was calculated based on a standard curve obtained by the reaction of various concentrations of H2O2 with o-DD and horseradish peroxidase.

[3] = test system: cultured rat forebrain neurons; test: Measurement of intracellular cGMP in neuronal cultures (enzyme-linked immunoassay); format: cell-based
Procedure: as §1
Intracellular cGMP was assayed by enzyme-linked immunoassay (Amersham). Cultures were washed three times, and then medium was replaced by EBSS with or without PQQ or SOD. The non-specific phosphodiesterase inhibitor, 3-isobutyl-1-methylxanthine (IBMX) at 100 μM was present in all conditions. DEA/NO, SIN-1 and peroxynitrite were added for 5 min, and then the medium was replaced with 200 μl of releasing reagent provided in the kit. The plates were agitated for 20 min at room temperature, and 20 μl of acetylation reagent was added. After 5 min, 50 μl samples were taken for assay.

SMILES: O=C(O)c1cc(C(=O)O)c2c(n1)C(=O)C(=O)c1cc(C(=O)O)[nH]c1-2 [PQQ, Pyrroloquinoline quinone]
- Effect on oligodendrocyte death induced by SIN-1 (Oligodendrocytes): completely blocked
- Effect on ATP depletion caused by nitric oxide donors ([1]; PQQ 100 μM, DEA/NO, DPT/NO 1 mM): did not block; also recorded: no effect
- Effect on ATP depletion caused by ONOO− ([1]; PQQ 100 μM, ONOO− 100 μM): no effect
- Effect on ATP depletion induced by SIN-1 ([1]; PQQ 100 μM, SIN-1 1 mM, 1 hr): significantly blocked
- Intracellular ATP ([1]; of control values, 1 hr ONOO− 100 μM with PQQ 100 μM): 42±5.4% and 43.8±4.7%
- Intracellular ATP ([1]; of control values, 1 hr SIN-1 1 mM with PQQ 100 μM): 84.4±13.9% and 93±12.6%
- Intracellular ATP ([1]; one hour, DEA/NO 1 mM in the presence of PQQ 100 μM): 42.9±19.6%
- Intracellular ATP ([1]; one hour, DPT/NO 1 mM in the presence of PQQ 100 μM): 72.7±7.9%
- Effect on BSA nitration caused by ONOO− (BSA; ONOO− 100 μM, PQQ 100-500 μM): potentiated; also recorded: increased
- Effect on BSA nitration caused by SIN-1 (BSA; SIN-1 1 mM, PQQ 100 μM, 300 μM or 500 μM): completely blocked
- Effect on oxidation of o-diansidine by H2O2 [2]: did not reduce
- Intracellular cGMP content ([3]; DEA/NO 10 μM in the presence of PQQ 100 μM): 255±38 % of control
- Intracellular cGMP content ([3]; ONOO− 100 μM in the presence of PQQ 100 μM): 142.5±16.2 % of control
- Effect on cGMP levels in the presence of DEA/NO ([3]; PQQ 100 μM, DEA/NO 10 μM): did not significantly alter
- Effect on cGMP accumulation induced by SIN-1 ([3]; PQQ 100 μM, SIN-1 100 μM): potentiated; also recorded: enhanced
- Intracellular cGMP content ([3]; SIN-1 100 μM in the presence of PQQ 100 μM): 267±19.5 % of control and 313.5±45 % of control
